Data: US4937390A, “Compound useful for the production of 3-deoxy-3-fluoro-myo-inositol” (University of Pittsburgh, priority 1989, dated 1990)

Assays:
Assay type in all cases: cell-based, rat
[1] = system: PC12 cells; test: Cell growth inhibition (cell counts), dose response and time course in PC12 cells; conditions: for concentration determined to have maximal effects in the dose response study / inhibition of cell replication / Cell Number / potency at inhibiting cell replication relative to the 3-fluoro-myo-inositol analog: PC12 cells; for concentration determined to have maximal effects in the dose response study: cell replication; for inhibition of cell replication: dose response study, maximal effect; for inhibition of cell replication / Cell Number: five days
Description: The biological effects of the 3-fluoro and 1-fluoro myo-inositol analogs were tested in PC12 cells, a cell line derived from a rat pheochromocytoma, which has been widely used to study the effects of various growth factors and […]., Adv. Cell Neurobiol., 3, 373-414, (1982), the disclosure of which is incorporated herein by reference.
PC12 cells were seeded at a density of 3.3×10^5 cells/cm^2 in plastic culture dishes and grown at 37° C. in a humidified atmosphere of 95% air/5% CO2. The basal medium used in these experiments was RPMI-1640 medium (Gibco). In some experiments a specially formulated inositol-free RPMI-1640 medium (Gibco) was used. This basal medium was supplemented with either normal or extensively dialyzed horse serum (10%) and fetal calf serum (5%) (Gibco). Some control dishes were grown in complete RPMI medium, i.e. with myo-inositol and containing non-dialyzed serum (Control 1) and some control dishes were grown in inositol deficient medium, i.e., RPMI without inositol and with dialyzed serum (Control 2). The inositol analogs were dissolved in distilled H2 O and added to the culture medium at the indicated concentrations.
Cell counts were performed by removing the medium, washing the cells gently in PBS with calcium, detaching the cells by 15 minute induction in PBS/EDTA (0.5 mM) containing 0.1% trypsin, and counting in a hemocytometer.
A dose-response study was performed by growing cells in the presence of certain concentrations of the 3-fluoro and the 1-fluoro-myo-inositol analogs. At the end of five days, the cells were counted by the means described hereinabove.
The time course effect on cell replication was then examined, using the concentration of 1-fluoro and 3-fluoro myo-inositol analogs determined to have maximal effects in the dose response study of Table 1. (1 mM and 5 mM for the 1-fluoro and 3-fluoro-myo-inositol analogs, respectively).

[2] = system: PC12 cells; test: Effect on cell size (protein per cell, Lowry) in PC12 cells; conditions: for effect on cell cycle / cell division: chronically treated PC12 cells
Description: As cells grow in culture, the size of an individual cell varies in a fairly predictable way. The size of a cell can be expressed as the amount of protein present per cell. […] Immediately after mitosis, the cell size drops considerably, frequently to levels approximately half of the pre-mitotic level.
By investigating the size of a cell, it is possible to determine at which point within the cell cycle inhibitors of cell replication are exerting their effects. Accordingly, we investigated the effect of the 1- and 3-fluoro-myo-inositol analogs on the size of cells chronically treated with such analogs.
Cells were grown and treated with 1- and 3-fluoro-myo-inositol analogs as described in Example XIII. On the days indicated, cells were gently harvested without disruption, and the number of cells counted in triplicate in a cell counting chamber. Following determination of the number of cells per sample, the remainder of the cells were pelleted in a microcentrifuge as described hereinabove, and the protein in the sample was determined by the method of Lowry. Thus, it was possible to derive from these two data sets the amount of protein per cell, which is expressed as nanograms of protein per cell, as indicated in Table 3: […]

[3] = system: PC12 cells; test: Uptake and incorporation of [3H]myo-inositol into PC12 cells following treatment with inositol analogs; conditions: for Bound [3H]myo-inositol (incorporated into membranes) / Free [3H]myo-inositol (cytoplasm): one hour [3H]myo-inositol
Description: Since myo-inositol must be incorporated into the cellular plasma membranes in order for it to serve its role as a second messenger, we therefore verified the ability of the 1- and 3-fluoro-myo-inositol analogs to perturb the incorporation of myo-inositol into cellular plasma membranes by the enzyme […] CDP-diacylglycerol-inositol phosphatidylytransferase (phosphatidylinositolsynthesis).
These tests were conducted by treating cells for either 1, 3, 5, or 7 days with the myo-inositol analogs, followed by a brief exposure to radiolabeled myo-inositol ([^3 H]myo-inositol). The extent of incorporation of tritiated myo-inositol would, therefore, reflect the extent to which phosphatidylinositol and its phosphorylated analogs are deficient in the cellular plasma membranes.
Cells were grown as described hereinabove. Twenty-four hours after plating, the medium was changed and cells were exposed to either inositol free medium (Control 2) or medium containing either the 1- or the 3-fluoro-myo-inositol analog. At four different time points --1, 3, 5, and 7 days--cells were tested for their ability to incorporate radiolabeled [^3 H]myo-inositol. This test was conducted by removing the medium and replacing it with RPMI medium (both myo-inositol and serum free) containing only [^3 H]myo-inositol. The cells were exposed to this medium for a period of one hour, following which they were washed three times with phosphate-buffered saline containing excess unlabeled myo-inositol (10 mM). Cells were lysed by treatment with trichloroacetic acid (TCA) and sonicated to insure complete disruption. The cellular homogenate was then collected and spun in a microfuge tube at 12,000 r.p.m. for 15 min. Samples from both the pellet and supernatant were then obtained and the levels of radioactivity in each were determined. Radioactivity in the supernatant corresponded to the amount of free [^3 H]myo-inositol in the cytoplasm of the cell, whereas the radioactivity present in the TCA-precipated pellet represented [^3 H]myo-inositol incorporated into the cellular plasma membranes.
Cells were treated for the indicated time periods with the inositol
analogs, and then exposed for one hour to [^3 H]myoinositol. Numbers
represent DPM/10^6 cells.

SMILES: O[C@@H]1[C@@H](O)[C@@H](O)[C@@H](F)[C@H](O)[C@H]1O [1-deoxy-1-fluoro-myo-inositol]
- Time course cell counts ([1]; Day 0, 1 mM, inositol-free medium): 1.46 × 10^5 cells per dish
- Time course cell counts ([1]; Day 1, 1 mM): 2.10 ± 0.03 cells per dish, × 10^5
- Time course cell counts ([1]; Day 3, 1 mM): 4.5 ± 0.10 cells per dish, × 10^5
- Time course cell counts ([1]; Day 5, 1 mM): 8.4 ± 0.7 cells per dish, × 10^5
- Time course cell counts ([1]; Day 7, 1 mM): 10.8 ± 0.6 cells per dish, × 10^5
- concentration determined to have maximal effects in the dose response study [1]: 1 mM
- inhibition of cell replication [1]: approximately 50%
- Cell Number ([1]; 0.01 mM): 4.53 ± 0.13 × 10^5 cells/dish
- Cell Number ([1]; 0.03 mM): 4.18 ± 0.07 × 10^5 cells/dish
- Cell Number ([1]; 0.10 mM): 3.71 ± 0.03 × 10^5 cells/dish
- Cell Number ([1]; 0.30 mM): 3.29 ± 0.08 × 10^5 cells/dish
- Cell Number ([1]; 1.0 mM): 2.73 ± 0.13 × 10^5 cells/dish
- Cell Number ([1]; 3.0 mM): 2.67 ± 0.09 × 10^5 cells/dish
- Cell Number ([1]; 10.0 mM): 2.68 ± 0.07 × 10^5 cells/dish
- Cell Number ([1]; 30.0 mM): 2.72 ± 0.03 × 10^5 cells/dish
- potency at inhibiting cell replication relative to the 3-fluoro-myo-inositol analog ([1]; listed as 1-deoxy-1-deoxy-1-fluoro-myo-inositol): about five-fold
- potency at inhibiting cell replication relative to the 3-fluoro-myo-inositol analog ([1]; listed as 1-fluoro-myo-inositol analog): 5 fold
- cell size relative to controls ([2]; cells arrested in pre-mitotic state): approximately 2 fold
- effect on cell cycle / cell division [2]: arrested in a pre-mitotic state (termed late G2)
- Cell size (protein per cell) ([2]; treatment duration 1 day): 0.082 ± 0.01 nanograms protein/cell
- Cell size (protein per cell) ([2]; treatment duration 3 days): 0.135 ± 0.01 nanograms protein/cell
- Cell size (protein per cell) ([2]; treatment duration 5 days): 0.160 ± 0.01 nanograms protein/cell
- Cell size (protein per cell) ([2]; treatment duration 7 days): 0.168 ± 0.02 nanograms protein/cell
- Bound [3H]myo-inositol (incorporated into membranes) ([3]; Day 1 of treatment): 392 ± 16 DPM/10^6 cells
- Free [3H]myo-inositol (cytoplasm) ([3]; Day 1 of treatment): 8365 ± 787 DPM/10^6 cells
- Bound [3H]myo-inositol (incorporated into membranes) ([3]; Day 3 of treatment): 4614 ± 141 DPM/10^6 cells
- Free [3H]myo-inositol (cytoplasm) ([3]; Day 3 of treatment): 4751 ± 291 DPM/10^6 cells
- Bound [3H]myo-inositol (incorporated into membranes) ([3]; Day 5 of treatment): 2143 ± 314 DPM/10^6 cells
- Free [3H]myo-inositol (cytoplasm) ([3]; Day 5 of treatment): 4295 ± 627 DPM/10^6 cells
- Bound [3H]myo-inositol (incorporated into membranes) ([3]; Day 7 of treatment): 3726 ± 588 DPM/10^6 cells
- Free [3H]myo-inositol (cytoplasm) ([3]; Day 7 of treatment): 7569 ± 757 DPM/10^6 cells

SMILES: O[C@@H]1[C@@H](O)[C@H](O)[C@@H](F)[C@@H](O)[C@H]1O [3-deoxy-3-fluoro-myo-inositol]
- Time course cell counts ([1]; Day 0, 5 mM, inositol-free medium): 1.46 × 10^5 cells per dish
- Time course cell counts ([1]; Day 1, 5 mM): 2.12 ± 0.02 cells per dish, × 10^5
- Time course cell counts ([1]; Day 3, 5 mM): 4.2 ± 0.1 cells per dish, × 10^5
- Time course cell counts ([1]; Day 5, 5 mM): 7.6 ± 0.1 cells per dish, × 10^5
- Time course cell counts ([1]; Day 7, 5 mM): 10.6 ± 0.6 cells per dish, × 10^5
- concentration determined to have maximal effects in the dose response study [1]: 5 mM
- inhibition of cell replication [1]: approximately 50%
- Cell Number ([1]; 0.01 mM): 4.60 ± 0.24 × 10^5 cells/dish
- Cell Number ([1]; 0.03 mM): 4.49 ± 0.07 × 10^5 cells/dish
- Cell Number ([1]; 0.10 mM): 4.21 ± 0.05 × 10^5 cells/dish
- Cell Number ([1]; 0.30 mM): 3.87 ± 0.05 × 10^5 cells/dish
- Cell Number ([1]; 1.0 mM): 3.21 ± 0.08 × 10^5 cells/dish
- Cell Number ([1]; 3.0 mM): 2.53 ± 0.04 × 10^5 cells/dish
- Cell Number ([1]; 10.0 mM): 2.50 ± 0.03 × 10^5 cells/dish
- Cell Number ([1]; 30.0 mM): 2.36 ± 0.01 × 10^5 cells/dish
- cell size relative to control cells ([2]; by day seven): about 3.5 times
- effect on cell cycle / cell division [2]: continued to increase steadily in size without undergoing cell division
- Cell size (protein per cell) ([2]; treatment duration 1 day): 0.086 ± 0.01 nanograms protein/cell
- Cell size (protein per cell) ([2]; treatment duration 3 days): 0.259 ± 0.01 nanograms protein/cell
- Cell size (protein per cell) ([2]; treatment duration 5 days): 0.320 ± 0.01 nanograms protein/cell
- Cell size (protein per cell) ([2]; treatment duration 7 days): 0.343 ± 0.03 nanograms protein/cell
- level of radioactivity-labeled myo-inositol incorporated into the cellular plasma membranes [3]: quite low
- Bound [3H]myo-inositol (incorporated into membranes) ([3]; Day 1 of treatment): 354 ± 10 DPM/10^6 cells
- Free [3H]myo-inositol (cytoplasm) ([3]; Day 1 of treatment): 3326 ± 253 DPM/10^6 cells
- Bound [3H]myo-inositol (incorporated into membranes) ([3]; Day 3 of treatment): 761 ± 42 DPM/10^6 cells
- Free [3H]myo-inositol (cytoplasm) ([3]; Day 3 of treatment): 2929 ± 189 DPM/10^6 cells
- Bound [3H]myo-inositol (incorporated into membranes) ([3]; Day 5 of treatment): 414 ± 52 DPM/10^6 cells
- Free [3H]myo-inositol (cytoplasm) ([3]; Day 5 of treatment): 2900 ± 383 DPM/10^6 cells
- Bound [3H]myo-inositol (incorporated into membranes) ([3]; Day 7 of treatment): 676 ± 113 DPM/10^6 cells
- Free [3H]myo-inositol (cytoplasm) ([3]; Day 7 of treatment): 4095 ± 161 DPM/10^6 cells
